Source: patent US5348975A, “7-chromanyl esters of phenols and benzoic acids having retinoid-like activity” (Allergan, Inc., priority 1993, dated 1994)

What was measured:
[1] = system: ornithine decarboxylase (ODC); test: inhibition of TPA-induced ornithine decarboxylase (ODC) activity (retinoic acid-like activity; essentially method of Verma & Boutwell); type: in vivo
Source text: The retionic acid like activity of these compounds was confirmed through the classic measure of retionic acid activity involving the effects of retionic acid on ornithine decarboxylase. The original work on the correlation between retinoic acid and decrease in cell proliferation was done by Verma & Boutwell, Cancer Research, 1977, 37, 2196-2201. That reference discloses that ornithine decarboxylase (ODC) activity increased precedent to polyamine biosynthesis. It has been established elsewhere that increases in polyamine synthesis can be correlated or associated with cellular proliferation. Thus, if ODC activity could be inhibited, cell hyperproliferation could be modulated.
By way of example of retinoic acid-like activity it is noted that in the assay conducted essentially in accordance with the method of Verma & Boutwell, ibid, the following examples of the preferred compounds of the present invention (Compounds 1, 2 and 3) elicited the following percent inhibition of TPA-induced ODC activity at the given calculations: […]

[2] = system: ornithine decarboxylase (ODC); settings: literature background, cited from earlier work

CCOC(=O)c1ccc(OC(=O)c2ccc3c(c2)OC(C)(C)CC3(C)C)cc1 [Compound 1, Ethyl 4-(2,2,4,4-tetramethyl-7-chromanoyloxy) benzoate]
% inhibition of TPA-induced ODC activity ([1]; Dose 30 nmol): 100%

CC1(C)CC(C)(C)c2ccc(C(=O)Oc3ccc(C(=O)OCc4ccccc4)cc3)cc2O1 [Compound 2, Benzyl 4-(2,2,4,4,tetramethyl-7-chromanoyloxy)benzoate]
% inhibition of TPA-induced ODC activity ([1]; Dose 300 nmol): 84%

CCCCCCCCCCCCCC(=O)O[C@@H]1[C@@H](C)[C@@]2(O)[C@@H](C=C(CO)C[C@]3(O)C(=O)C(C)=C[C@@H]23)[C@@H]2C(C)(C)[C@]12OC(C)=O [TPA, 12-0-tetradecanoyl-phorbol-13-acetate]
induction of ODC activity (in words) ([2]; TPA): induces ODC activity

CC1(C)CC(C)(C)c2ccc(C(=O)Oc3ccc(C(=O)O)cc3)cc2O1 [Compound 3, 4-(2,2,4,4-tetramethyl-7-chromanoyloxy) benzoic acid]
% inhibition of TPA-induced ODC activity ([1]; Dose 30 nmol): 86%

CC1=C(/C=C/C(C)=C/C=C/C(C)=C/C(=O)O)C(C)(C)CCC1 [Retinoic acid]
inhibition of TPA induction of ODC activity (in words) ([2]; retinoic acid): inhibits this induction of ODC activity by TPA
